Columns and labels:
[1] = system: T24 bladder cancer cells; assay: antiproliferative activity against T24 (Grade 3, non-metastatic) bladder cancer cells in vitro; type: cell-based; details: for Percentage of inhibition related to control (%) / inhibition at 25 µg/mL / inhibition at 50 µg/mL / inhibition at 100 µM: bladder cancer cells in vitro; for inhibition at 25 µg/mL / inhibition at 50 µg/mL / inhibition at 100 µM: read-out: Percentage of inhibition related to control (%)
Procedure: (§1) Compounds of the present invention were tested for antiproliferative activity against RT24 (Grade I) and T24 (Grade3, non-metastatic) bladder cancer cells in vitro, in accordance with well known standard technique as diagramed in FIG. 5.

[2] = system: RT24 (Grade I) bladder cancer cells; assay: antiproliferative activity against RT24 (Grade I) bladder cancer cells in vitro; type: cell-based; details: FIGS. 1-4
Procedure: FIG. 5 is a schematic diagram of the in vitro test for antiproliferative activity referred to in Example 1 below.
as §1

[3] = system: bladder cancer; details: cited from earlier work
[4] = system: advanced transitional cell carcinoma of the urothelium; details: Phase II, with prophylactic G-CSF, cited from earlier work
[5] = system: human bladder cancer cell lines; details: cited from earlier work

11-Methysticin
Percentage of inhibition related to control (%) ([1]; 25 μg/ml): 52.1%

COc1cc(O)cc(O)c1C(=O)CC(O)c1ccccc1 (stereo not shown) [1-(2,4-Dihydorxy-6-methoxy-phenyl-3-hydorxy-3-phenyl-propan-1-one]
Percentage of inhibition related to control (%) ([1]; 25 μg/ml): 42.3%

COc1ccc(/C=C/C(=O)c2c(OC)cc(O)cc2OC)cc1 [4′-hydroxy-4,2′,6′-trimethoxychalcone]
inhibition at 25 µg/mL ([1]; 25 μg/ml): 73.7%

COc1cc(/C=C/c2ccc(OC)c(OC)c2)oc(=O)c1 [11-Methoxyangonin]
Percentage of inhibition related to control (%) ([1]; 25 μg/ml): 26.3%

COc1ccc2cc3[n+](cc2c1OC)CCc1cc2c(cc1-3)OCO2 [Berberine]
inhibition at 50 µg/mL ([1]; 50 μg/ml): 17.9%

COc1ccc(-c2coc3cc(O)cc(O)c3c2=O)cc1 [Biochanin A]
Percentage of inhibition related to control (%) ([1]; 25 μg/ml): 48.7%

CC(=O)OC[C@@]1(O)C[C@@]23CC[C@@H]4c5ccoc5CC[C@@]4(C)[C@@H]2CC[C@@H]1C3 [Cafestol Acetate]
inhibition at 50 µg/mL ([1]; 50 μg/ml): 57.6%

O=c1oc2cc(O)ccc2c2oc3cc(O)ccc3c12 [Coumestrol]
inhibition at 50 µg/mL ([1]; 50 μg/ml): 30%

COc1cc(/C=C/C(=O)CC(=O)/C=C/c2ccc(O)c(OC)c2)ccc1O [Curcumin]
inhibition at 50 µg/mL ([1]; 50 μg/ml): 69.7%

O=c1c(-c2ccc(O)cc2)coc2cc(O)ccc12 [Daidzein]
inhibition at 50 µg/mL ([1]; 50 μg/ml): 39.3%

O=C(O[C@@H]1Cc2c(O)cc(O)cc2O[C@@H]1c1cc(O)c(O)c(O)c1)c1cc(O)c(O)c(O)c1 [EGCG]
Percentage of inhibition related to control (%) ([1]; 25 μg/ml): 34%

O=c1oc2c(O)c(O)cc3c(=O)oc4c(O)c(O)cc1c4c23 [Ellagic acid]
inhibition at 100 µM [1]: 66%

COc1ccc(/C=C/C(=O)c2c(O)cc(OC)cc2OC)cc1 [Flavokawain A, 2′-hydroxy-4,4′,6′-trimethoxychalcone]
inhibitory effects on proliferation ([1]; T24 (Grade 3, non-metastatic) cells in vitro, FIGS. 1-4): significant inhibitory effects | inhibitory effects on proliferation [2]: significant inhibitory effects

Nc1ccn([C@@H]2O[C@H](CO)[C@@H](O)C2(F)F)c(=O)n1 [Gemcitabine]
median survival ([3]; clinical trials): less than 12 months | response rate ([3]; clinical trials): less than 30% | toxicity ([3]; phase II trials): in general mild and reversible

O=c1c(-c2ccc(O)cc2)coc2cc(O)cc(O)c12 [Genistein]
inhibition at 25 µg/mL ([1]; 25 μg/ml): 48.7%

O=c1c(O)c(-c2ccc(O)cc2)oc2cc(O)cc(O)c12 [Kaempferol]
inhibition at 50 µg/mL ([1]; 50 μg/ml): 60%

C[C@@]12C=Cc3occc3[C@H]1CC[C@@]13C[C@@H](CC[C@H]12)[C@@](O)(CO)C3 [Kahweol]
Percentage of inhibition related to control (%) ([1]; 50 μg/ml): 61.2%

COC1=CC(=O)O[C@@H](/C=C/c2ccccc2)C1 [Kawain]
inhibition at 25 µg/mL ([1]; 25 μg/ml): 33.6%

O=c1c(O)c(-c2ccc(O)cc2O)oc2cc(O)cc(O)c12 [Morin]
inhibition at 50 µg/mL ([1]; 50 μg/ml): 34%

O=C1C[C@@H](c2ccc(O)cc2)Oc2cc(O)cc(O)c21 [Naringenin]
inhibition at 50 µg/mL ([1]; 50 μg/ml): 20%

C[C@@H]1O[C@@H](O[C@H]2[C@H](Oc3cc(O)c4c(c3)O[C@H](c3ccc(O)cc3)CC4=O)O[C@H](CO)[C@@H](O)[C@@H]2O)[C@H](O)[C@H](O)[C@H]1O [Naringin]
inhibition at 50 µg/mL ([1]; 50 μg/ml): 29%

Oc1cc(O)c2c(c1)O[C@H](c1ccc(O)c(O)c1)[C@H](O)[C@H]2c1c(O)cc(O)c2c1O[C@H](c1ccc(O)c(O)c1)[C@@H](O)C2 [Procyanidin B1]
Percentage of inhibition related to control (%) ([1]; 25 μg/ml): 44.2%

O=c1c(O)c(-c2ccc(O)c(O)c2)oc2cc(O)cc(O)c12 [Quercetin]
inhibition at 50 µg/mL ([1]; 50 μg/ml): 53.3%

Oc1ccc(C=Cc2cc(O)cc(O)c2)cc1 [Resveratrol]
inhibition at 50 µg/mL ([1]; 50 μg/ml): 70.6%

O=c1c2ccccc2nc2n1CCc1c-2[nH]c2ccccc12 [Rutaecurpine]
Percentage of inhibition related to control (%) ([1]; 50 μg/ml): 76%

C[C@@H]1O[C@@H](OC[C@H]2O[C@@H](Oc3c(-c4ccc(O)c(O)c4)oc4cc(O)cc(O)c4c3=O)[C@H](O)[C@@H](O)[C@@H]2O)[C@H](O)[C@H](O)[C@H]1O [Rutin]
inhibition at 100 µM [1]: 47.7%

COc1cc(C2Oc3cc([C@H]4Oc5cc(O)cc(O)c5C(=O)[C@@H]4O)ccc3OC2CO)ccc1O (stereo partly shown) [Silibinin]
inhibition at 100 µM [1]: 40%

O=C1c2c(O)cc(O)cc2O[C@H](c2ccc(O)c(O)c2)[C@H]1O [Taxifolin]
inhibition at 50 µg/mL ([1]; 50 μg/ml): 36.7%

CC(=O)O[C@H]1C(=O)[C@@]2(C)[C@H]([C@H](OC(=O)c3ccccc3)[C@]3(O)C[C@H](OC(=O)[C@H](O)[C@@H](NC(=O)c4ccccc4)c4ccccc4)C(C)=C1C3(C)C)[C@]1(OC(C)=O)CO[C@@H]1C[C@@H]2O [paclitaxel]
objective response (response rate) ([4]; previously untreated patients): 42% | toxicities [4]: granulocytopenia, anemia, mucositis, and neuropathy | activity against human bladder cancer cell lines [5]: significant activity

Reference: patent publication US7326734B2, “Treatment of bladder and urinary tract cancers” (The Regents of the University of California, priority 2003, dated 2008)
